Experimental data published in publication PMC9223764, “In Vitro Selection and Characterization of HIV-1 Variants with Increased Resistance to LP-40, Enfuvirtide-Based Lipopeptide Inhibitor” (International Journal of Molecular Sciences, 2022).
Where “and” joins values, the source holds several entries; their conditions need not be identical. Identical values can stand only once. Where a SMILES comes first, the peptide text is derived from it. The star is where a group is joined. Palmitoyl = CCCCCCCCCCCCCCCC(=O)*

Legend:
Assay type in all cases: cell-based
[1] = tested on: HIV-1 NL4-3 gp41 A50V pseudovirus; settings: Table 2; for IC50: A50V, TZM-bl cells, 48 h, luciferase, mean ± SD, triplicate, repeated three times
Protocol: (§1) The entry abilities of A15V, L57H, R68G, G86D, C87Y, E119G, and N140S were almost completely lost, corresponding to LP40-V6, LP40-V7, T20-V9, LP40-V3, LP40-V5, LP40-V4, and T20-V5, respectively, so it was determined that these mutation sites might be lethal mutations. […] The differences between the wild-type envelope proteins and serial mutant proteins in mediating membrane fusion were compared using a double-separated protein-based fusion experimental system. […] G20V, A21T, E119G, and Y127H had only an approximately 10% fusion capacity, and L33S, N42D, N42T, and N43S had less than 50% fusion capacity, but N140S had approximately 60% fusion capacity (Figure 6B). […] Among them, we selected the fusion ability of the sixth hour to evaluate the fusion activities of the mutant strains (Figure 6B).
(§2) Viral RNA was extracted from the supernatant, and, after reverse transcription, the cDNA was amplified using PCR. These amplified DNA were connected to the T-Easy vector and transformed to Trans 2-Blue Chemically Competent Cells. These sequences were determined via sequencing. The expression plasmids, which contained different HIV-1NL4-3 Env mutants, were constructed using DNA assembly (NEBuilder® HiFi DNA Assembly Master Mix). In brief, two primers were used to amplify Env, and the other two primers were used to amplify the vector fragment. The products of PCR were purified with a 20–25 bp overlap in the terminal of Env and the vector fragment Env and the vector fragment were added to the DNA assembly master mix at […] for 15 min and then transformed to Trans 2-Blue Chemically Competent Cells. Additionally, a single-point mutation was generated using double-stranded DNA templates and a selection of mutants with a restriction enzyme (DpnI) as described previously. The successful mutations were confirmed via sequencing.
(§3) The infectivity of HIV Env mutants and the inhibitory activities of membrane fusion inhibitors on mutants in TZM-bl cells were measured using a single-cycle infection assay as described previously. Briefly, the HIV pseudovirus was packed using an Env-coding plasmid, and pSG3ΔEnv was co-transfected into HEK293T cells. pSG3ΔEnv encodes an Env-defective, luciferase-expressing HIV-1 genome. After the pseudoviruses were harvested and filtrated, the amount of pseudoviruses was fixed via P24 antigen, and their infectivity was determined in TZM-bl cells. In order to measure the inhibitory activities of the inhibitors, inhibitors diluted serially 3-fold were mixed with an equal volume of pseudoviruses, and then 100 µL 1 × 10^5/mL TZM-bl cells were added to the mixture and incubated at 37 °C with 5% CO2 for 48 h. After that, TZM-bl cells were lysed using reporter lysis buffer, and IC50 values were calculated according to luciferase activity measured by luciferase assay reagents and a luminescence counter (Promega, Madison, WI, USA).

[2] = tested on: HIV-1 NL4-3 gp41 A71V pseudovirus; settings: Table 2; for IC50: A71V, TZM-bl cells, 48 h, luciferase, mean ± SD, triplicate, repeated three times
Protocol: as §1, §2, §3

[3] = tested on: HIV-1 NL4-3 gp41 E137K pseudovirus; settings: Table 2; for IC50: E137K, TZM-bl cells, 48 h, luciferase, mean ± SD, triplicate, repeated three times
Protocol: as §1, §2, §3

[4] = tested on: HIV-1 NL4-3 gp41 G20V pseudovirus; settings: Table 2; for IC50: G20V, TZM-bl cells, 48 h, luciferase, mean ± SD, triplicate, repeated three times
Protocol: as §1, §2, §3

[5] = tested on: HIV-1 NL4-3 gp41 N126K pseudovirus; settings: Table 2; for IC50: N126K, TZM-bl cells, 48 h, luciferase, mean ± SD, triplicate, repeated three times
Protocol: as §1, §2, §3

[6] = tested on: HIV-1 NL4-3 gp41 N42D pseudovirus; settings: Table 2; for IC50: N42D, TZM-bl cells, 48 h, luciferase, mean ± SD, triplicate, repeated three times
Protocol: as §1, §2, §3

[7] = tested on: HIV-1 NL4-3 gp41 N42T pseudovirus; settings: Table 2; for IC50: N42T, TZM-bl cells, 48 h, luciferase, mean ± SD, triplicate, repeated three times
Protocol: as §1, §2, §3

[8] = tested on: HIV-1 NL4-3 gp41 N43S pseudovirus; settings: Table 2; for IC50: N43S, TZM-bl cells, 48 h, luciferase, mean ± SD, triplicate, repeated three times
Protocol: as §1, §2, §3

[9] = tested on: HIV-1 NL4-3 gp41 S35P pseudovirus; settings: Table 2; for IC50: S35P, TZM-bl cells, 48 h, luciferase, mean ± SD, triplicate, repeated three times
Protocol: as §1, §2, §3

[10] = tested on: HIV-1 NL4-3 gp41 V38A pseudovirus; settings: Table 2; for IC50: V38A, TZM-bl cells, 48 h, luciferase, mean ± SD, triplicate, repeated three times
Protocol: as §1, §2, §3

[11] = tested on: HIV-1 NL4-3 gp41 V38T pseudovirus; settings: Table 2; for IC50: V38T, TZM-bl cells, 48 h, luciferase, mean ± SD, triplicate, repeated three times
Protocol: as §1, §2, §3

[12] = tested on: HIV-1 NL4-3 gp41 Y127H pseudovirus; settings: Table 2; for IC50: Y127H, TZM-bl cells, 48 h, luciferase, mean ± SD, triplicate, repeated three times
Protocol: as §1, §2, §3

Molecule | IC50 [1] | IC50 [2] | IC50 [3] | IC50 [4] | IC50 [5] | IC50 [6] | IC50 [7] | IC50 [8] | IC50 [9] | IC50 [10] | IC50 [11] | IC50 [12] | further results
CCCCCCCCCCCCCCCC(=O)NCCCC[C@H](NC(=O)[C@H](CC(=O)O)NC(=O)[C@H](CC(C)C)NC(=O)[C@H](CCC(=O)O)NC(=O)[C@H](CC(C)C)NC(=O)[C@H](CC(C)C)NC(=O)[C@H](CCC(=O)O)NC(=O)[C@H](CCC(N)=O)NC(=O)[C@H](CCC(=O)O)NC(=O)[C@H](CC(N)=O)NC(=O)[C@H](CCCCN)NC(=O)[C@H](CCC(=O)O)NC(=O)[C@H](CCC(N)=O)NC(=O)[C@H](CCC(N)=O)NC(=O)[C@H](CC(N)=O)NC(=O)[C@H](CCC(N)=O)NC(=O)[C@H](CO)NC(=O)[C@H](CCC(=O)O)NC(=O)[C@H](CCC(=O)O)NC(=O)[C@@H](NC(=O)[C@H](CC(C)C)NC(=O)[C@H](CO)NC(=O)[C@H](Cc1c[nH]cn1)NC(=O)[C@@H](NC(=O)[C@H](CC(C)C)NC(=O)[C@H](CO)NC(=O)[C@@H](NC(=O)[C@H](Cc1ccc(O)cc1)NC(C)=O)[C@@H](C)O)[C@@H](C)CC)[C@@H](C)CC)C(N)=O [LP-40] (Ac-YTSLIHSLIEESQNQQEKNEQELLELDK(Palmitoyl)-NH2) | 58.8 ± 13.7 nM | 43.2 ± 8.19 nM | 42.6 ± 11.7 nM | 205 ± 47.2 nM | 304 ± 50.5 nM | 109 ± 18.4 nM | 1270 ± 167 nM | 357 ± 117 nM | 21.6 ± 5.15 nM | 3490 ± 423 nM | 1450 ± 237 nM | 5.74 ± 1.86 nM | Fold change in IC50 ([1]; A50V relative to WT NL4-3): 1.87 fold; Fold change in IC50 ([2]; A71V relative to WT NL4-3): 1.37 fold; Fold change in IC50 ([3]; E137K relative to WT NL4-3): 1.35 fold; Fold change in IC50 ([4]; G20V relative to WT NL4-3): 6.5 fold and 6.49 fold; Fold change in IC50 ([5]; N126K relative to WT NL4-3): 9.7 fold and 9.65 fold; Fold change in IC50 ([6]; N42D relative to WT NL4-3): 3.46 fold; Fold change in IC50 ([7]; N42T relative to WT NL4-3): 40.18 fold; Fold change in IC50 ([8]; N43S relative to WT NL4-3): 11.31 fold; Fold change in IC50 ([9]; S35P relative to WT NL4-3): 0.69 fold; Fold change in IC50 ([10]; V38A relative to WT NL4-3): 110.56 fold; Fold change in IC50 ([11]; V38T relative to WT NL4-3): 46.03 fold; Fold change in IC50 ([12]; Y127H relative to WT NL4-3): 0.18 fold
Enfuvirtide | 162 ± 69.4 nM | 46.5 ± 12.5 nM | 68.5 ± 20.1 nM | 49.1 ± 10.9 nM | 117 ± 37.4 nM | 164 ± 26.8 nM | 413 ± 82 nM | 540 ± 91.9 nM | 138 ± 10.6 nM | 1540 ± 22 nM | 991 ± 216 nM | 23.7 ± 2.63 nM | –
